In ChEMBL document CHEMBL1131777, “Analogs of 4-(3-bromo-8-methyl-10-methoxy-6,11-dihydro-5H-benzo[5,6]-cyclo hepta[1,2-b]pyridin-11-yl)-1-(4-pyridinylacetyl)piperidine N-oxide as inhibitors of farnesyl protein transferase” (Bioorg Med Chem Lett, 1999):

Biological target: T1, Protein farnesyltransferase (Homo sapiens, UniProt P49354+P49356)
Test: Percent inhibition of human Farnesyltransferase
Assay type: protein-complex assay
Conditions: concentration not given here

Row | SMILES | inhibition [%]
1 | COc1cc(C)cc2c1C(C1CCN(C(=O)Cc3cc[n+]([O-])cc3)CC1)c1ncc(C(C)(C)O)cc1CC2 (configuration not stated) | 26

Biological target: T1, Protein farnesyltransferase
Test: In vitro inhibition of human Farnesyltransferase
Assay type: protein-complex assay
Conditions: not given

Row | SMILES | IC50 [nM]
2 | COc1cc(C)cc2c1C(C1CCN(C(=O)Cc3cc[n+]([O-])cc3)CC1)c1ncccc1CC2 (configuration not stated) | 140
3 | COc1cc(C)cc2c1C(C1CCN(C(=O)Cc3cc[n+]([O-])cc3)CC1)c1ncc(C)cc1CC2 (configuration not stated) | 34
4 | COc1cc(C)cc2c1C(C1CCN(C(=O)Cc3cc[n+]([O-])cc3)CC1)c1ncc(C3CC3)cc1CC2 (configuration not stated) | 200
5 | CCc1cnc2c(c1)CCc1cc(C)cc(OC)c1C2C1CCN(C(=O)Cc2cc[n+]([O-])cc2)CC1 (configuration not stated) | 74
6 | COc1cc(C)cc2c1[C@@H](C1CCN(C(=O)Cc3cc[n+]([O-])cc3)CC1)c1ncc(Br)cc1CC2 | 3.6
7 | C=Cc1cnc2c(c1)CCc1cc(C)cc(OC)c1C2C1CCN(C(=O)Cc2cc[n+]([O-])cc2)CC1 (configuration not stated) | 59
